Experimental data: PubChem BioAssay (NCI)
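Method: 48-hour compound exposure of cells in 96-well plates, five concentrations, linear interpolation of endpoints. GI50 = concentration required for 50% inhibition of growth. TGI denotes the concentration required for complete inhibition of growth.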

Tests used:
Assay in all cases: DTP human tumour cell line panel, 48 h
[1] = test system: CCRF-CEM leukemia
[2] = test system: DU-145 prostate
[3] = test system: M14 melanoma
[4] = test system: TK-10 renal
[5] = test system: HCT-15 colon
[6] = test system: KM12 colon
[7] = test system: OVCAR-3 ovarian
[8] = test system: NCI/ADR-RES ovarian
[9] = test system: OVCAR-8 ovarian
[10] = test system: MALME-3M melanoma

SMILES | GI50 [1] [µM] | TGI [1] [µM] | GI50 [2] [µM] | TGI [2] [µM] | GI50 [3] [µM] | TGI [3] [µM] | GI50 [4] [µM] | TGI [4] [µM] | GI50 [5] [µM] | TGI [5] [µM] | GI50 [6] [µM] | TGI [6] [µM] | GI50 [7] [µM] | TGI [7] [µM] | GI50 [8] [µM] | TGI [8] [µM] | GI50 [9] [µM] | TGI [9] [µM] | GI50 [10] [µM] | TGI [10] [µM]
Cc1ccc(C(=O)Nc2ccc(CN3CCN(C)CC3)c(C(F)(F)F)c2)cc1C#Cc1cnc(N)c2ccc(C#N)cc12 | 0.807 | 18 | 0.0403 | 7.39 | 0.0234 | 2.34 | 0.625 | 5.75 | 0.0558 | 8.77 | 0.304 | 17.4 | 1.25 | 19.2 | 2.03 | 10.1 | 0.541 | > 11.7 | 0.0237 | 0.694
COc1ccc(/C=C(/C(=O)N2CCN(c3ccc(C)cc3)CC2)c2cc(OC)c(OC)c(OC)c2)cc1N | 0.394 | > 100 | 0.307 | > 76.3 | 0.247 | 2.48 | 4.77 | > 100 | 0.337 | > 100 | 0.314 | > 100 | 0.239 | 0.921 | 0.293 | 21.7 | 0.417 | > 100 | 0.503 | > 100
Nc1c(C(=O)c2cccc(C(O)(CO)CO)c2)cnn1-c1ccc(F)cc1 | > 25 | > 25 | > 25 | > 25 | > 25 | > 25 | > 25 | > 25 | > 25 | > 25 | > 25 | > 25 | > 25 | > 25 | > 25 | > 25 | > 25 | > 25 | > 25 | > 25
C/C(=N\N)C(CN1CCCCC1)C(c1ccccc1)c1c(O)c2ccccc2oc1=O (stereo not given) |  | > 100 |  | > 100 |  | > 100 |  | > 100 |  | > 100 |  | > 100 |  | > 100 |  | > 100 |  | > 100 |  | > 100
COc1ccc(C(=O)OC2C(OC3C(O)COC(O[C@H]4C[C@H]5[C@@H]6CC=C7C[C@@H](O)CC[C@]7(C)[C@H]6CC[C@]5(C)[C@H]4[C@H](C)C(=O)CCC(C)C)C3OC(=O)C(C)C)OCC(O)C2O)cc1 (stereo not given in full) | 0.00574 | 0.0317 | 0.017 | 4.65 | 0.00812 | 0.0389 | 0.411 | 6.24 | 0.218 | 3.92 | 0.0707 | 4.77 | 0.884 | 5.88 | 3.32 | 7.2 | 2.82 | 8.4 | 0.0411 | 2.88
Cc1cc(NCCCNc2ccnc3cc(Cl)ccc23)nc(Nc2ccc(C(=O)N3CCCCC3)cc2)n1 | 2.48 | 8.4 | 3.42 | 13.1 | 2.12 | 4.06 | 1.99 | 4.59 | 2.52 | 6.79 | 2.96 | 11.6 | 2.36 | 5.91 | 14.9 | 35.9 | 3.61 | 12.4 | 2.34 | 4.15
O=S1(=O)OCc2ccccc21 |  | > 100 |  | > 100 |  | > 100 |  | > 100 |  | > 100 |  | > 100 |  | > 100 |  | > 100 |  | > 100 |  | > 100
C=C(C)[C@@H]1CC[C@]2(C(=O)N3CCN(C)CC3)CC[C@]3(C)[C@H](CC[C@@H]4[C@@]5(C)C/C(=C/c6ccncc6)[C@H](O)C(C)(C)[C@@H]5CC[C@]43C)[C@@H]12 | 3.3 | 24.5 | 9.53 | 24 | 3.44 | 12.6 | 15.5 | 89.4 | 2.65 | 12.2 | 3.86 | 17.7 | 4.82 | 17.2 | 4.81 | 23.2 | 7.68 | 30.7 | 2.08 | 6.07
